For test [1], the target named is T1, Histidine--tRNA ligase (Trypanosoma cruzi (strain CL Brener), UniProt Q4DA54).
T1 sequence (Q4DA54 whole entry): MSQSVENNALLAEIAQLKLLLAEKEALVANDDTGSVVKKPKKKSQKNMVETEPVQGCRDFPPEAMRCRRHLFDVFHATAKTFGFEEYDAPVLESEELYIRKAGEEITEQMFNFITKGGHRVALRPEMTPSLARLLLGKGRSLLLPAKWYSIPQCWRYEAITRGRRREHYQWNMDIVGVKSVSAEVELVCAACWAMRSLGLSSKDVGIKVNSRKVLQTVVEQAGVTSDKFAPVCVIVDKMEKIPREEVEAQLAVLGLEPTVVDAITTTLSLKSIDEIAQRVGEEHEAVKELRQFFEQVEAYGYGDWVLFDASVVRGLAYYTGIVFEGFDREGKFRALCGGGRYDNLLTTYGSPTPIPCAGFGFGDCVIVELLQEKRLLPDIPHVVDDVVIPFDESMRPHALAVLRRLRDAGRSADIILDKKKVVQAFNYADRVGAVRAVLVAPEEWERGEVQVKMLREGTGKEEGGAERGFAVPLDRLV
The test is described as follows: Trypanosoma cruzi histidyl tRNA synthetase (Tc-HisRS). It counts as functional.

The target of test [2] is T2, Histidine--tRNA ligase (Leishmania infantum, UniProt A4I591).
T2 sequence (A4I591 whole entry): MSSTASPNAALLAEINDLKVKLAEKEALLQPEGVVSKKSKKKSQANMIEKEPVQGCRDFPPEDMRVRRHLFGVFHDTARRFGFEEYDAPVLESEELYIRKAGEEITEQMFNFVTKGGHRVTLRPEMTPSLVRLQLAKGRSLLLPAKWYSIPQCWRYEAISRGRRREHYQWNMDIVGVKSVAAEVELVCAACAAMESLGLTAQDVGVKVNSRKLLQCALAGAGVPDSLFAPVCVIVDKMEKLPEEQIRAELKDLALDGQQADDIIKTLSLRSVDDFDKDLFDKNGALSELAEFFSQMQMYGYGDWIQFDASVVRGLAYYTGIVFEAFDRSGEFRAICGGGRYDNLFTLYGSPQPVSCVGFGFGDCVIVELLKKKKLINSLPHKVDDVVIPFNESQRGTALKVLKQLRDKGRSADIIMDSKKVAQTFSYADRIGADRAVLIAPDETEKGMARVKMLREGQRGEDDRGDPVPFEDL
As to the kind of experiment: Leishmania infantum Histidine tRNA synthetase (LdHisRS). The class given is functional.

Test [3] is described as follows: microbe, parasite or virus in culture. The conditions noted are these: Mycobacterium tuberculosis, 96 h, read-out: pIC50 (converted).
The nature of test [4]: microbe, parasite or virus in culture. The conditions noted are these: Mycobacterium tuberculosis, 72 h, read-out: pIC50 (converted).
The target in test [5] is ClpP1P2 (Mycobacterium tuberculosis (strain ATCC 25618 / H37Rv), UniProt P9WPC3+P9WPC5). The test is described as follows: in vitro assay to detect presence of AMC directly proportional to the activity of ClpP1P2. GHDDI collaboration. The class given is functional.

Molecules are shown by their SMILES. “And” between values parts separate entries of the source, which are not always exact repeats. Equal values may be shown once. Some results are limits rather than exact numbers.

The record followed here is ChEMBL document CHEMBL3988442, “University of Dundee, Small-Polar-MMV Screening Library” (2021).

Sequence of ClpP1P2 (P9WPC5 whole entry): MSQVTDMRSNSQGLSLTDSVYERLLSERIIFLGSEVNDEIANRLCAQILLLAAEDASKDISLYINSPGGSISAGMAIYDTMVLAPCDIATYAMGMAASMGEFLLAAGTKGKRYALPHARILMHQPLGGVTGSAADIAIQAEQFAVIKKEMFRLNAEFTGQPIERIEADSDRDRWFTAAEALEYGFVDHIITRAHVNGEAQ
Sequence of ClpP1P2 (P9WPC3 whole entry): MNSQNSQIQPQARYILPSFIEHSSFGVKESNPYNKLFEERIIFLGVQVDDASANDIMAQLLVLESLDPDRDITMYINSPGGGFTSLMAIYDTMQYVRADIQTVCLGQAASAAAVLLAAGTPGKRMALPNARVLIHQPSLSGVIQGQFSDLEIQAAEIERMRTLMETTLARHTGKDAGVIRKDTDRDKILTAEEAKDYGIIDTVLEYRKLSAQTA

In turn, `CCN(CC)CCNC(=O)CCc1c(C)nn(-c2cccc(Cl)c2)c1C` showed an IC50 in test [1] above 100 µM.

Compound `CCN(CC)CCNC(=O)CCc1c(C)nn(-c2ccc(Cl)cc2)c1C` gave an IC50 in test [1] above 100 µM. Same read-out and setting: the value for `CCN(CC)CCNC(=O)CCc1c(C)nn(-c2ccccc2Br)c1C` was above 100 µM; that for `CCN(CC)CCNC(=O)CCc1c(C)nn(-c2ccccc2Cl)c1C` was above 100 µM. Still for that read-out and setting: the value for `Cc1nn(-c2ccccc2Cl)c(C)c1CCC(=O)NCCS(C)(=O)=O` was above 100 µM; that for `Cc1ccc(N2Cc3c(CN(C)C)nn(C)c3C2)nn1` was above 100 µM. The same measure, in the same setting: the value for `Cc1ccc(N2CCCC3(COCCN(c4cnccn4)C3)C2)nn1` (configuration not stated) was above 100 µM. For the compound `O=C(O)c1ccc2ccc(N3CCN(CC4CC4)CC3)n2c1`, the IC50 in test [1] was 38.6 µM and 57.7 µM. For `Cc1ccc(N2CC3(CCN(c4nccs4)C3)C2)nn1`, in test [1], the IC50 is above 100 µM.

As to `O=C(O)c1ccccc1-c1ccc(CN2CC(c3ccncn3)C2)o1`, the IC50 in test [1] was 52.3 µM and 57.8 µM. `Cc1nccc(C2CN(Cc3ccc(-c4ccccc4C(=O)O)o3)C2)n1` showed an IC50 in test [1] above 100 µM. Regarding `Nc1nccc(C2CN(Cc3ccc(-c4ccccc4C(=O)O)o3)C2)n1`, the IC50 in test [1] was 32.2 µM and 50.5 µM; in test [2], 25.3 µM and 25.4 µM. As to `Cc1ccnc(C2CN(Cc3ccc(-c4ccccc4C(=O)O)o3)C2)n1`, the IC50 in test [1] was 48.1 µM and 40.7 µM. In test [1], `Fc1ccc(F)c(CN2CCC(c3cnccn3)CC2)c1` gave an IC50 above 100 µM. Same read-out and setting: the value for `Fc1cc(F)cc(CN2CCC(c3cc4ncccc4cn3)CC2)c1` was above 100 µM.

As to `O=C(O)c1cncc(Cc2ccccc2F)c1`, the IC50 in test [1] was above 100 µM. The same measure, in the same setting: the value for `O=C(O)c1cncc(Cc2ccc(F)cc2)c1` was above 100 µM. Still for that read-out and setting: the value for `O=C(O)c1ccc(Cc2cccc(F)c2)nc1` was above 100 µM.

`O=C(O)c1cncc(Cc2cccc(F)c2)c1`: in test [1], the IC50 was above 100 µM. As for `Cn1cc(NC(=O)N2CCCC2c2cccnc2)ccc1=O` (configuration not stated), the IC50 in test [1] is 5.39 µM and 6.42 µM; in test [2], 5.84 µM and 5.74 µM. `CC1CCN(c2ccc(C(=O)N3CCCC3c3nncn3C)cn2)CC1` (configuration not stated) gave an IC50 in test [1] above 100 µM. `CCCn1cc(NC(=O)c2ccc(NC(=O)NC3CC3)cc2)ccc1=O`: the IC50 is 4.75 µM and 4.19 µM in test [1]; 5.84 µM and 7.08 µM in test [2].

With `CCCn1cc(NC(=O)c2ccc(N(C)CC)cc2)ccc1=O`, the IC50 in test [1] is above 100 µM. As to `CCCn1cc(NC(=O)c2cccnc2O)ccc1=O`, the IC50 in test [1] is above 100 µM. In turn, `Cc1nc(CNC2CCCN(c3cccnn3)C2)no1` (configuration not stated) had an IC50 in test [1] above 100 µM. Still for that read-out and setting: for `c1cncc(-c2noc(CNC3CCCN(c4cccnn4)C3)n2)c1` (configuration not stated) the value was above 100 µM; for `c1ccc(-c2nc(CNC3CCCN(c4cccnn4)C3)no2)cc1` (configuration not stated), above 100 µM. On to `CC(C)(C)c1nc(CNC2CCCN(c3cccnn3)C2)no1` (configuration not stated), for which the IC50 is 39.6 µM and 34.1 µM in test [1]; above 50.1 µM in test [3]; above 50.1 µM in test [4].

`c1cnnc(N2CCCC(NCc3nc(-c4ccsc4)no3)C2)c1` (configuration not stated) had an IC50 in test [1] above 100 µM.

In turn, `c1cnnc(N2CCCC(NCc3nc(-c4cccs4)no3)C2)c1` (configuration not stated) had an IC50 in test [1] above 100 µM.

With `c1ccc(-c2noc(CNC3CCCN(c4cccnn4)C3)n2)nc1` (configuration not stated), the IC50 is above 100 µM in test [1]; 34.2 µM and 44.7 µM in test [2]. Regarding `COC(=O)c1ccc(CNC(=O)Nc2ccc(=O)n(C)c2)cc1`, the IC50 is 3.6 µM and 3.34 µM in test [1]; 1.41 µM and 1.19 µM and 3.2 µM and 2.68 µM in test [2]. On to `Cn1cc(NC(=O)CCc2ccsc2)ccc1=O`, for which the IC50 in test [1] was 13.3 µM and 13.9 µM; in test [2] it was 12.7 µM and 13.3 µM. In the case of `Cc1cc(=O)n(C)cc1NC(=O)Cc1ccc(C(F)(F)F)cc1`, the IC50 in test [1] was 5.22 µM and 5.49 µM; in test [2], 6.69 µM and 5.43 µM. Compound `Cc1cc(CNC2CCCN(c3cccnn3)C2)no1` (configuration not stated) showed an IC50 in test [1] above 100 µM. The same measure, in the same setting: for `c1cnnc(N2CCCC(NCc3nc(C4CC4)no3)C2)c1` (configuration not stated) the value was 52.8 µM and 48.2 µM. In the case of `COCCc1noc(CNC2CCCN(c3cccnn3)C2)n1` (configuration not stated), in test [1], the IC50 was above 100 µM. Still for that read-out and setting: for `c1ccc(CNc2ncc(CN3CCCN4CCC[C@H]4C3)cn2)cc1` the value was 39.6 µM and 38.3 µM; for `O=C(O)CNc1cc(-c2nccnc2N2CCCC2)c2cc[nH]c2n1`, 38.4 µM and 34.5 µM.

With `Nc1cc(-c2nccnc2N2CCCC2)c2cc[nH]c2n1`, the IC50 in test [1] was 64.4 µM and 75.3 µM.

In the case of `COc1cccn(CC(=O)N2CCCC3(CCOCC3)C2)c1=O`, the IC50 was 5.31 µM and 6.94 µM in test [1]; above 100 µM in test [2]. Compound `CC(C)(O)CCc1cccc(C(=O)NCc2nccs2)c1` gave an IC50 in test [1] above 100 µM. Same read-out and setting: the value for `CN(C)[C@H]1CCCCN(Cc2cnc(NCc3ccccc3)nc2)C1` was above 100 µM; that for `CN1CCN2CCN(Cc3cnc(NCc4ccccc4)nc3)CC2C1` (configuration not stated) was above 100 µM; that for `c1ccc(CNc2ncc(CN3CC[C@H]4CC[C@@H](C3)N4)cn2)cc1` was above 100 µM.

`CNc1cc(-c2ccc(COCCN)cc2)c2cc[nH]c2n1`: the IC50 in test [1] was 38.8 µM and 97 µM; in test [5], above 100 µM. In test [1], `CC(C)(O)CCc1cccc(C(=O)NCc2cnn3cccnc23)c1` gave an IC50 above 100 µM. As for `CNC1CCN(C2CCN(c3ccc(-c4ccco4)cc3)CC2)CC1`, the IC50 is 65.7 µM and 43.8 µM in test [1]; above 50.1 µM in test [3]; 24.6 µM in test [4]. As to `CC(C)n1ccnc1CNC(=O)c1cccc(CCC(C)(C)O)c1`, in test [1], the IC50 is above 100 µM. The compound `NCC1Cc2cccc(-c3nccc(N4CCC(O)CC4)n3)c2O1` (configuration not stated) showed an IC50 in test [1] above 100 µM. Consider `Cc1nc(C)n(CC2CCCN2Cc2nc3ccccc3c(=O)[nH]2)n1` (configuration not stated), for which the IC50 in test [1] is above 100 µM. Same read-out and setting: the value for `Cc1nc(C)n(CC2CCCN2Cc2nc3ccccc3o2)n1` (configuration not stated) was above 100 µM. Same read-out and setting: for `Cc1nc(C)n(CC2CCCN2Cc2nc3ccccc3s2)n1` (configuration not stated) the value was above 100 µM; for `Cc1nc(CN(C)CC2CCCN2c2cccnn2)oc1C` (configuration not stated), above 100 µM; for `CN(Cc1nc2ccccc2o1)CC1CCCN1c1cccnn1` (configuration not stated), above 100 µM. Same read-out and setting: for `CN(Cc1nc2ccccc2n1C)CC1CCCN1c1cccnn1` (configuration not stated) the value was 52.7 µM and 52.1 µM; for `Cc1nc2ccccc2nc1CN(C)C1CCCN(c2cccnn2)C1` (configuration not stated), above 100 µM; for `Cc1nc(C)n(CC2CCCN2Cc2nc(N)c3ccccc3n2)n1` (configuration not stated), above 100 µM. For `Cc1nc(C)n(CC2CCCN2Cc2nc3ccccc3n2C)n1` (configuration not stated), the IC50 in test [1] was above 100 µM. Same read-out and setting: the value for `Cc1nc(C)n(CC2CCCN2Cc2nc3ccccc3nc2C)n1` (configuration not stated) was above 100 µM; that for `Cc1nc2ccccc2nc1CN(C)CC1CCCN1c1cccnn1` (configuration not stated) was 90.5 µM and 50.8 µM.

Turning to `Cc1noc(C)c1CN(C)CC1CCCN1c1cccnn1` (configuration not stated), the IC50 in test [1] is above 100 µM. The same measure, in the same setting: for `CN(Cc1nc(N)c2ccccc2n1)CC1CCCN1c1cccnn1` (configuration not stated) the value was above 100 µM; for `COCCN1CCC2(CCN(c3ncccn3)CC2)C1=O`, above 100 µM. Consider `CCN1CCC2(CCN(c3ncccn3)CC2)C1=O`, for which the IC50 in test [1] was above 100 µM. Same read-out and setting: the value for `Cc1cnc(N2CCC3(CCN(CC4CCCC4)C3=O)CC2)nc1` was above 100 µM.

`O=C1N(CC2CCCC2)CCC12CCN(c1ncc(F)cn1)CC2` showed an IC50 in test [1] above 100 µM. On the same count and under the same terms, the value for `Cn1nc(Cn2ccnc2)c2c1CN(c1ncccn1)C2` was above 100 µM. The same measure, in the same setting: for `O=C1N(CC2CC2)CCC12CCN(c1ncccn1)CC2` the value was above 100 µM. On to `Cn1nc(Cn2ccnc2)c2c1CN(c1nccs1)C2`, for which the IC50 was 88.3 µM and 86.2 µM in test [1]; 20.5 µM and 14.5 µM in test [2]. `Cc1ccc(N2CCC3(CC2)COCCN(c2nccs2)C3)nn1`: the IC50 in test [1] was 96.2 µM and 98.9 µM; in test [2], 33.4 µM and 28.7 µM. `Cc1ccc(N2CCCC3(COCCN(c4nccs4)C3)C2)nn1` (configuration not stated) showed an IC50 in test [1] above 100 µM.
